{
  "source": "paper PMC8843100",
  "about": "“Development of newly synthesised quinazolinone-based CDK2 inhibitors with potent efficacy against melanoma” (Journal of Enzyme Inhibition and Medicinal Chemistry, 2022)",
  "origin": "cited, not measured here",
  "tested_on": "cyclin-dependent kinase2",
  "set-up": "method as in PMID 11354366",
  "conditions": "CDK2; cited from earlier work",
  "data": [
    {"compound": "CC(C)(C)Nc1nc(C(F)(F)F)nc2ccc(-c3cccc(N)c3)cc12", "note": "[DIN-234325]", "values": [
      {"measurement": "IC50", "value": "600 ± 100", "unit": "nM"}
    ]}
  ]
}
